Key:
[1] = biological target: T1, human EP4 receptor (Homo sapiens, UniProt P35408); experiment: Binding ability to human EP receptors, [3H]PGE2 displacement, EP4; conditions: membranes expressing human EP4 receptor; [3H]PGE2 1 nM; Cheng-Prusoff; read-out: pKi (M) EP4 (converted)
T1 construct: expressed in transfected cells; HEK-293 is named only for the cAMP assay
Protocol: (§1) Membranes were prepared from cells stably transfected with human EP receptor cDNA. In brief, cells were cultured to confluency, scraped from culture flasks, and centrifuged (800 g, 8 minutes, 4° C.). Cells were twice washed in ice cold homogenisation buffer containing 10 mM Tris-HCl, 1 mM EDTA.2Na, 250 mM sucrose, 1 mM PMSF, 0.3 mM indomethacin, pH 7.4, homogenised and re-centrifuged as before. The supernatant was stored on ice and pellets re-homogenised and re-spun. Supernatants were pooled and centrifuged at 40000 g, 10 minutes, 4° C. Resultant membrane pellets were stored at −80° C. until use.
(§2) For assay, membranes expressing human EP4, EP3, EP2 or EP1 receptors were incubated in Millipore (MHVBN45) plates containing assay buffer, radiolabelled [^3H]PGE2 and 0.1 to 10 000 nM concentrations of compounds. Incubations were performed at suitable temperatures and for suitable times to allow equilibrium to be reached. Non-specific binding was determined in the presence of 10 uM PGE2. Bound and free radiolabel was separated by vacuum manifold filtration using appropriate wash buffers, and bound radiolabel was determined by scintillation counting. Constituents of each of the buffers are included in table 1 below.
(§3) The affinity or pKi of each compound for each receptor was calculated from the concentration causing 50% radioligand displacement (IC50) using the Cheng-Prusoff equation: […]
(§4) This approach follows that set out in Kenakin, T. P., Pharmacologic analysis of drug receptor interaction. Raven Press, New York, 2nd edition.

[2] = biological target: T2, human EP2 receptor (Homo sapiens, UniProt P43116); experiment: Binding ability to human EP receptors, [3H]PGE2 displacement, EP2; conditions: membranes expressing human EP2 receptor; [3H]PGE2 3 nM; Cheng-Prusoff; read-out: pKi (M) EP2 (converted)
T2 construct: expressed in transfected cells; HEK-293 is named only for the cAMP assay
Protocol: as §1, §2, §3, §4

T1 sequence (P35408 whole entry): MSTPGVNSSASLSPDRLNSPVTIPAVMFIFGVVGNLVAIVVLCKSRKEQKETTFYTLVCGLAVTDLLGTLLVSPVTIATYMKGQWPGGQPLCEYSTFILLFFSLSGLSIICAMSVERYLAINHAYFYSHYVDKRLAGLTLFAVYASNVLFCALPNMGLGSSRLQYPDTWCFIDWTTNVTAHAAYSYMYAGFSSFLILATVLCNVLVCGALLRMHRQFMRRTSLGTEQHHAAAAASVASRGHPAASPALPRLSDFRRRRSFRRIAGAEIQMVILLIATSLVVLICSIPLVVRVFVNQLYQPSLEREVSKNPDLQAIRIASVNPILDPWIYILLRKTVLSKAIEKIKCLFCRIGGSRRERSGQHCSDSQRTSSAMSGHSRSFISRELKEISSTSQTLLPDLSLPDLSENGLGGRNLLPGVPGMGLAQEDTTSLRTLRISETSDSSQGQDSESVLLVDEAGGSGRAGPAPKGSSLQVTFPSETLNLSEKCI
T2 sequence (P43116 whole entry): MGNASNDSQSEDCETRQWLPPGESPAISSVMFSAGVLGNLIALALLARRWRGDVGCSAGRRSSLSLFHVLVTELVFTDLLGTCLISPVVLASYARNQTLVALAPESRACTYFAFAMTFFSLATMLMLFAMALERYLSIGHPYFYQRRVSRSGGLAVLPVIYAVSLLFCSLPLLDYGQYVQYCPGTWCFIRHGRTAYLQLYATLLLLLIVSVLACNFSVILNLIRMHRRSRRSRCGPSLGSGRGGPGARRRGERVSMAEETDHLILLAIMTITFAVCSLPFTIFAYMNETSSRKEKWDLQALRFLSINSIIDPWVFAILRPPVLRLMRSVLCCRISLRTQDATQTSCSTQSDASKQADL

## N=C(Nc1cccc(C=CC(=O)O)c1)c1cc(-c2ccccc2)ccc1F [Compound 58, 3-{3-[(4-Fluoro-biphenyl-3-carboximidoyl)-amino]-phenyl}-acrylic acid]
[1]
  Ki: > 1e-06 M
[2]
  Ki: < 1e-06 M

## O=C(O)C=Cc1cccc(-c2nc3cc(-c4ccccc4)ccc3o2)c1 [Compound 34, 3-[3-(5-Phenyl-benzoxazol-2-yl)-phenyl]-acrylic acid]
[1]
  Ki: > 1e-06 M
[2]
  Ki: < 1e-06 M

## O=C(O)C=Cc1cccc(NC(=O)c2ccc(-c3ccccc3)o2)n1 [Compound 40, 3-{6-[(5-Phenyl-furan-2-carbonyl)-amino]-pyridin-2-yl}-acrylic acid]
[1]
  Ki: > 1e-06 M
[2]
  Ki: < 1e-06 M

## O=C(O)C=Cc1cccc(Sc2cccc(-c3ccccc3)n2)c1 [Compound 16, 3-[3-(6-Phenyl-pyridin-2-ylsulfanyl)-phenyl]-acrylic acid]
[1]
  Ki: > 1e-06 M
[2]
  Ki: < 1e-06 M

## O=C(O)C=Cc1cccc(NC(=O)c2ccc3oc4ccccc4c3c2)c1 [Compound 20, 3-{3-[(Dibenzofuran-2-carbonyl)-amino]-phenyl}-acrylic acid]
[1]
  Ki: > 1e-06 M
[2]
  Ki: < 1e-07 M

## O=C(O)C=Cc1cccc(C=Cc2ccc(-c3ccccc3)o2)c1 [Compound 29, 3-{3-[2-(5-Phenyl-furan-2-yl)-vinyl]-phenyl}-acrylic acid]
[1]
  Ki: > 1e-06 M
[2]
  Ki: < 1e-06 M

## O=C(O)C=Cc1ccc(F)c(NC(=O)c2ccc(-c3ccccc3)o2)c1 [Compound 45, 3-{4-Fluoro-3-[(5-phenyl-furan-2-carbonyl)-amino]-phenyl}-acrylic acid]
[1]
  Ki: > 1e-06 M
[2]
  Ki: < 1e-07 M

## O=C(O)C=Cc1cccc(NC(=O)c2ccc(Oc3ccccc3)o2)c1 [Compound 5, 3-{3-[(5-Phenoxy-furan-2-carbonyl)-amino]-phenyl}-acrylic acid]
[1]
  Ki: > 1e-06 M
[2]
  Ki: < 1e-07 M

## O=C(O)C=Cc1cccc(NC(=O)c2ccc(C(=O)c3ccccc3)o2)c1 [Compound 11, 3-{3-[(5-Benzoyl-furan-2-carbonyl)-amino]-phenyl}-acrylic acid]
[1]
  Ki: > 1e-06 M
[2]
  Ki: < 1e-07 M

## O=C(O)C=Cc1ccc(Cl)c(NC(=O)c2cc(-c3ccccc3)ccc2F)c1 [Compound 52, 3-{4-Chloro-3-[(4-fluoro-biphenyl-3-carbonyl)-amino]-phenyl}-acrylic acid]
[1]
  Ki: > 1e-07 M
[2]
  Ki: < 1e-08 M

## O=C(O)C=Cc1cccc(CC(O)c2ccc(-c3ccccc3)o2)c1 (stereo not shown) [Compound 28, 3-{3-[2-Hydroxy-2-(5-phenyl-furan-2-yl)-ethyl]-phenyl}-acrylic acid]
[1]
  Ki: > 1e-06 M
[2]
  Ki: < 1e-06 M

Reference: US8080567B2, “EP2 receptor agonists” (Asterand UK Limited, priority 2005, dated 2011)
